Results as given in PMC5445283, “Selection and characterization of alanine racemase inhibitors against Aeromonas hydrophila” (BMC Microbiology, 2017).
In brackets after ≈: the same amount, converted by molar mass. Several values for one entry are separate records, joined by “and”; a condition that tells them apart may be missing. Identical values can stand only once. Entries after “also recorded” stand apart in the source; their conditions may differ. Counter-ions that a name gives are not always drawn. Like-named read-outs stand apart in the source and are kept apart here.

Assays:
[1] = test system: Caco-2 cells; design: method as in PMID 22146584; details: cited from earlier work
[2] = test system: D-amino acid oxidase (DAAO) and horseradish peroxidase (HRP); test: Assay interference counter screen (second step of the assay); format: biochemical; details: for inhibition of second-step enzymes / assay interference, in words: HRP and DAAO, within a concentration of 50 μM; for IC50: DAAO/HRP reaction, 10 μM D-ala as substrate, read-out: IC50 on the enzymes in the second step (counter screen)
Procedure: To eliminate the inhibitory effects of the compounds on DAAO and HRP, a counter screening assay was performed as described above. The first-step assay mixtures without alanine racemase and L-alanine were added to each test well, followed by the addition of a twofold dilution series (in DMSO) of the inhibitors to the sample test wells, and finally, the addition of DMSO to the blank control wells. Then, DMSO was added to each well to obtain reaction mixtures at a final volume of 100 μl.
Second, the D-amino acid oxidase reaction mixture was prepared using 10 μM D-ala as the substrate. The control and control blank for the enzyme assay was prepared with or without 10 μM D-ala and absorbance was measured at 550 nm.

[3] = biological target: T1, alanine racemase Alr-2 (Aeromonas hydrophila, UniProt A0KL98); test: biochemical
T1 sequence (A0KL98 entry or part of it): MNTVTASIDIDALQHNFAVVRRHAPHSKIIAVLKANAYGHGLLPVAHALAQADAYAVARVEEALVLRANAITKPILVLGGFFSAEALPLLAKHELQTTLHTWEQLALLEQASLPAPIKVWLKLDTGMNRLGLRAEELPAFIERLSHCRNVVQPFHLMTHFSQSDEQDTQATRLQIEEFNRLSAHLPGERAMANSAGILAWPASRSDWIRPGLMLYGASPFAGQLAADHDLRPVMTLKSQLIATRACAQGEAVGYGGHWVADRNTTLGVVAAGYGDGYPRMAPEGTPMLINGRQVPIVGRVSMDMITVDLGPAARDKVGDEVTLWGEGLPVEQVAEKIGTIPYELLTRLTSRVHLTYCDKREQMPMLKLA
Procedure: Alanine racemase activity was measured at room temperature in the L → D direction using a spectrophotometric assay. The assay was modified by varying the volume to 100 μl and dividing it into two steps (Fig. 1).
The first step (F1) is the production of the D-form amino acids. The optimized enzyme assay reaction mixture consisted of 10 μM PLP, 12.5 mM of NaHCO3-NaOH buffer (pH 11), and 50 mM L-alanine and alanine racemase. A total of 100 μl of this reaction mixture was added to the wells of a 96-well plate. After incubation at 35 °C for 10 min, the reaction was terminated by adding 12.5 μl of 2 M HCl, and the incubation was continued for 2 min on ice. The reaction mixture was centrifuged at 10,000 RPM, for 10 min at 4 °C, and 10 μl of 2 M NaOH was added to neutralize the reaction mixture. The second step (F2) is the conversion of D-alanine to α-keto acids using D-amino acid oxidase (DAAO). The formation of H2O2 from this reaction can be quantified using horseradish peroxidase (HRP) at 550 nm. The DAAO reaction mixture contained 200 mM of Tris-HCl (pH 8.0), 0.1 mg/ml 4-aminoantipyrine (AAP), 0.1 mg/ml N-ethyl-N-(2-hydroxy-3-sulfopropyl)-m-toluidine sodium salt (TOOS), 2 units of HRP, 0.1 unit of DAAO and D-form amino acid solution in a final volume of 100 μl. The negative control for the enzyme assay was prepared using the same procedure but without enzyme. After incubating at 37 °C for 30 min, the absorbance was measured at 550 nm using a Spectra MAX 190 microplate reader (Molecular Devices Corp., USA). One unit (U) of enzyme was defined as the amount of purified enzyme that catalyzed the formation of 1 μmol of D-alanine from L-alanine per minute.
Each well (sample, control, and their blanks) contained the screening assay reaction mixture of 10 μM PLP and 12.5 mM NaHCO3-NaOH buffer (pH 11). Next, 4 μl of test substance (small molecular compounds or natural product extracts) was added to the sample and sample blank test tubes. Finally, […] alanine racemase was added to the sample and control test tubes while the same volume of DMSO was added to the sample blank and control blank test tubes. After incubation at 4 °C for 30 min, 50 mM L-alanine was added to the sample and control test wells while DMSO was added to the sample blank and control blank test wells to obtain a final volume of 100 μl. The control and control blank were defined as 100% and 0% of enzyme activity. The reaction was then carried out as described for the alanine racemase assay. The assay is divided into two steps: absorbance was measured at 550 nm at the end of the first (F1), and second (F2) steps and ΔF was defined as F2-F1. Inhibition activity was calculated from the following equation.
Fourfold dilution series (in DMSO) were prepared for all the compounds, and the solutions were added to the wells of a 96-well plate to yield the final inhibitory concentrations. Each concentration was tested in triplicate. The substrate was added after incubation for 30 min, and the fluorescence intensity was measured after the reaction. The positive control (D-cycloserine, DCS) was diluted in DMSO, and the negative control was prepared without adding an inhibitor to the control wells of each plate. Percentage inhibition at each inhibitor concentration was calculated with respect to the negative control. The results were analyzed using the SPSS 16.0 IBM modeler to calculate the compound concentration that causes 50% inhibition (IC50).

[4] = test system: A. hydrophila Δalr-2; format: cell-based, Aeromonas hydrophila; details: for MIC against A.hydrophila Δalr-2: average values with standard deviations in parentheses, NC: non calculable as the values are too high
Procedure: A. hydrophila HBNUAh01 isolated from infected Paralichthys olivaceus and an A. hydrophila alr-2 knockout mutant were used in this study. Escherichia coli BL-21(DE3) cells were used for protein expression. The pET-25b-alr2 plasmid was used for protein expression. The A. hydrophila and E. coli strains were cultured in Luria-Bertani (LB) medium at 30 °C and 37 °C, respectively. For plasmid selection, 0.5 mmol/l ampicillin (AMP, Sigma–Aldrich Inc., USA) was added to the LB medium for experiments with E. coli.
(§1) A. hydrophila was cultured for 18 h, washed with PBS (pH 7.2), and adjusted to an OD600 value of 0.5. Next, the culture was diluted tenfold five times, and aliquots were spread on LB agar in triplicate to determine the number of colony-forming units (CFU)/ml.
(§2) The minimum inhibitory concentration (MIC) of the chemical compounds against A. hydrophila was determined using the microdilution method in accordance with the guidelines of the Clinical and Laboratory Standards Institute, document M31-A3 [16], following the method described by Dal Pozzo et al.. Compounds were diluted in DMSO at concentrations of 80, 40, 20, or 10 μg/ml. Appropriate controls were included in all tests. DCS is a naturally occurring antibacterial compound that targets alanine racemase involved in peptidoglycan synthesis. DCS was used as a positive control ([…]), DMSO solvent was used as a negative control for growth inhibition and DMSO alone was used as the blank control. All tests were performed in triplicate. The inoculum was prepared in LB culture medium (1 × 10^8 CFU/ml; OD600 = 0.3) and cultured at 30 °C/20 h. The inoculum (100 μl; 1 × 10^5 CFU) was added to each well containing compounds. The microplates were incubated at 30 °C for 20 h.

[5] = test system: A. hydrophila; test: Antimicrobial susceptibility test, MIC by microdilution; format: cell-based, Aeromonas hydrophila; details: for MIC: Aeromonas hydrophila, read-out: MIC against A.hydrophila; for growth inhibition of A. hydrophila, in words: screen for antimicrobial activity
Procedure: as §1, §2

[6] = biological target: T1, alanine racemase Alr-2; test: Kinetics of alanine racemase inhibition (Lineweaver-Burk); format: biochemical; details: for Ki: Lineweaver-Burk analysis, read-out: inhibition constant Ki; for type (mode) of inhibition: Lineweaver-Burk profile
Procedure: The mode of inhibition of the enzyme by the compounds was determined as follows. The experiment was composed of three sets of reactions in which each set consisted of four concentrations of substrate in the presence of fixed amounts of alanine racemase, and three different concentrations of inhibitors were used. For homogentisic acid and hydroquinone, 0, 0.02 and 0.04 mg/ml were used. The reactions were made as described. The amount of product was determined spectrophotometrically and subsequently the standard curve was used to obtain reaction velocities. A double reciprocal plot (1/V versus 1/[S]), where V is reaction velocity and [S] is substrate concentration, was plotted. The type (mode) of inhibition of enzyme activity by the compounds was determined by analysis of the double reciprocal (Lineweaver-Burk) plot using Michaelis-Menten kinetics. The inhibition constant (K i) of the inhibitors was determined.

[7] = test system: HeLa cells; format: cell-based; details: for cytotoxicity, in words: MTT assay, HeLa / mammalian cells; for TC50, cytotoxicity in HeLa cells: MTT, 48 h exposure, average values with standard deviations, NC: non calculable as the values are too high
Procedure: This assay was performed in a 96-well plate format and used HeLa cells. The cell viability was determined using 3-(4,5-dimethyl-2-thiazole)-2,5-diphenyl-2H-tetrazolium bromide (MTT, Sigma-Aldrich). Cells were seeded in culture medium in microplates (4000 cells/well) and incubated at 37 °C for 24 h before drug treatments. […] The cells were exposed to the compounds for 48 h. At the end of the incubation, the cells were exposed to MTT (0.5 mg/ml) at 37 °C for 4 h. The reduced crystals were dissolved in DMSO, and absorbance was detected at 490 nm. The […] were set as zero absorbance. The percentage of cell survival was calculated using the background-corrected absorbance as follows: Cell survival (%) = (ODexperiment/ODcontrol) × 100. The data represent the mean and standard deviation from triplicate determination.

[8] = average values with standard deviations in parentheses, NC: non calculable as the values are too high
[9] = average values with standard deviations in parentheses, read-out: IC50 against Alr-2 with PLP

For `O=C1C=C2C(=CCOC2O)O1` (centres unmarked) [Compound I-2, Patulin], which “IC50 against Caco-2 cells” value [1] is on record?
Its value is 0.62 mg/L (≈ 4.02 µM).

And the “inhibition of second-step enzymes / assay interference, in words” value [2]?
The value was “weak inhibition”.

What about the “inhibition of second-step enzymes / assay interference, in words” value ([2]; listed as patulin) of the same compound?
Its value is “No assay interference”.

What about the IC50 [3] of the same compound?
The IC50 was 14.7 µM.

And the “MIC against A.hydrophila Δalr-2” value [4]?
Its value is 80(3.96) μg/ml.

What about the MIC [5] of the same compound?
The MIC was 20 mg/L (≈ 130 µM).

What about the “growth inhibition of A. hydrophila, in words” value (“growth inhibition” below) [5] of the same compound?
The value was “inhibit the growth of A. hydrophila significantly”.

For `O=C(O)Cc1cc(O)ccc1O` [Compound I-3, Homogentisic acid], which Ki [6] is on record?
Its Ki is 51.7 µM.

And the “type (mode) of inhibition” value [6]?
The value was “competitive type of inhibition”.

And the “cytotoxicity, in words” value [7]?
Its value is “minimal cytotoxicity”.

What about the “TC50, cytotoxicity in HeLa cells” value [7] of the same compound?
Its value is 157.7 μg/ml and 157.7(6.1) μg/ml.

What about the IC50 [2] of the same compound?
Its IC50 is 96.1 µM.

What about the “inhibition of second-step enzymes / assay interference, in words” value [2] of the same compound?
Its value is “No assay interference”.

And the IC50 [3]?
Its IC50 is 12.5 µM.

And the “antimicrobial activity against A. hydrophila Δalr-2, in words” value [4]?
The value was “no antimicrobial activity”.

What about the MIC [5, 8] of the same compound?
Its MIC is 120 mg/L (≈ 714 µM).

And the “growth inhibition” value [5]?
Its value is “inhibit the growth of A. hydrophila significantly”.

With `CCCCC1(C)C=CC(=C2C(=O)OC(=CC(=O)O)C2=O)O1` (centres unmarked) [Compound I-4, Acetic acid,[4-(5-butyl-5-methyl-2(5H)-furanylidene)dihydro −3,5-dioxo-2(3H)-furanylidene]-(9CI)] as the compound, how does the IC50 [3, 9] read?
Its IC50 is 8.9 µM.

With `CCCOC(=O)c1cc(O)c(O)c(O)c1` [Compound I-5, Propyl Gallate] as the compound, how does the IC50 [3, 9] read?
The IC50 was 8.6 µM.

Which Ki [6] does the source give for `Oc1ccc(O)cc1` [Compound I-6, Hydroquinone] here?
Its Ki is 212 µM.

And the “type (mode) of inhibition” value [6]?
Its value is “noncompetitive inhibitor; also recorded: noncompetitive type of inhibition”.

And the “cytotoxicity, in words” value [7]?
Its value is “minimal cytotoxicity”.

What about the “TC50, cytotoxicity in HeLa cells” value [7] of the same compound?
Its value is 122.9 μg/ml and 122.9(8.9) μg/ml.

And the IC50 [2]?
The IC50 was 113 µM.

And the “inhibition of second-step enzymes / assay interference, in words” value [2]?
Its value is “No assay interference”.

What about the IC50 [3] of the same compound?
Its IC50 is 18.5 µM.

What about the “MIC against A.hydrophila Δalr-2” value [4] of the same compound?
Its value is 140(2.4) μg/ml.

And the MIC [5, 8]?
Its MIC is 80 mg/L (≈ 727 µM).

And the “growth inhibition” value [5]?
Its value is “inhibit the growth of A. hydrophila significantly”.

For `O=C(O)CCc1ccccc1Nc1c2ccccc2nc2ccccc12` [Compound I-7, Benzenepropanoic acid,2-(9-acridinylamino)-monohydrochloride], which IC50 [3, 9] is on record?
The IC50 was 17.7 µM.

For `Oc1cc2c(cc1O)C1c3ccc(O)c(O)c3OCC1(O)C2` (centres unmarked) [Compound I-8, Haematoxylin], which IC50 [3, 9] is on record?
The IC50 was 15.6 µM.

For `Oc1ccc(CC2NCCc3cc(O)c(O)cc32)cc1` (centres unmarked) [Compound I-9, Higenamine], which IC50 [3] is on record?
Its IC50 is 14.3 µM.

With `O=c1c(O)c(-c2ccc(O)c(O)c2)oc2cc(O)cc(O)c12` [Compound I-10, Quercetin] as the compound, how does the IC50 [3] read?
The IC50 was 15.5 µM.

With `N[C@@H]1CON=C1O` [DCS, D-cycloserine, reference compound] as the compound, how does the “TC50, cytotoxicity in HeLa cells” value [7] read?
Its value is 149.6 μg/ml and 149.6(5.9) μg/ml.

And the IC50 [3, 9]?
Its IC50 is 5.4 µM.

And the “MIC against A.hydrophila Δalr-2” value [4]?
The value was 50(2.9) μg/ml.

And the MIC [5, 8]?
Its MIC is 25 mg/L (≈ 245 µM).

With Anabellamide [Compound I-1] as the compound, how does the IC50 [3, 9] read?
The IC50 was 6.6 µM.
